Results published in patent US4888287A, “Rapid differentiation of fungi from bacteria using polyene antibiotics” (Eastman Kodak Company, priority 1986, dated 1989).

Assay: Reduction potential E1/2 of the quinone nucleus of RIND compounds (Table I)
Format: physicochemical
Conditions: quinone nucleus with H in place of the releasing group; aqueous emulsion, DMF, nonionic surfactant, phosphate buffer pH 7; standard calomel electrode
Source text: Examples of such nuclei are presented below.
Preferably, the E1/2 is from about +100 mV to about +400 mV as measured in water, or from about -650 to about -300 mV as measured in acetonitrile. […] Further details of measuring the E1/2 are described below prior to Table I. The desired E1/2 is achieved by appropriate electron withdrawing groups on the CAR-nucleus, or by a strained fused ring attached to the nucleus or by a combination of both.
Representative RIND compounds are listed in Table I below in reference to the following structure: [drawing 3] The E1/2 values in Table I were determined for the quinone nucleus of this structure having a hydrogen atom in place of [drawing 4] The E1/2 values (where available) were measured in an aqueous emulsion of the quinone dissolved in N,N-dimethylformamide, a nonionic surfactant (for example, TRITON X-100) and sodium phosphate buffer (pH 7). A standard calomel electrode was used as a standard. Some E1/2 values (denoted by *) were measured in acetonitrile using a saturated calomel electrode as a standard. E1/2 values not available are denoted by "NA".
With `CN(CC1=C(c2ccccc2)C(=O)C2=C(C1=O)C1C=CC2C1)C(=O)Oc1ccc(N=Nc2ccc([N+](=O)[O-])cc2S(C)(=O)=O)c2c(NS(=O)(=O)c3cccc(S(N)(=O)=O)c3)cccc12` (stereo not drawn) [XIX] the E1/2 was “+242 mV”. For `COc1cccc(C2=C(CN(C)C(=O)Oc3ccc(N=Nc4ccc([N+](=O)[O-])cc4S(C)(=O)=O)c4c(NS(=O)(=O)c5cccc(S(N)(=O)=O)c5)cccc34)C(=O)C3=C(CCCC3)C2=O)c1` [X], the E1/2 was “+154 mV”. For `CN(CC1=C(c2ccccc2)C(=O)C2=C(CCC2)C1=O)C(=O)Oc1ccc2c3c(cccc13)C(=O)C=C2` [XXX], the E1/2 was “+222 mV”. With `CN(CC1=C(c2cc(Cl)ccc2Cl)C(=O)C2=C(CCC2)C1=O)C(=O)Oc1ccc(N=Nc2ccc([N+](=O)[O-])cc2S(C)(=O)=O)c2c(NS(=O)(=O)c3cccc(S(N)(=O)=O)c3)cccc12` [XXIV] the E1/2 was “+236 mV”. For `CN(CC1=C(c2ccc(C#N)cc2)C(=O)C2=C(CC=CC2)C1=O)C(=O)Oc1ccc(N=Nc2ccc([N+](=O)[O-])cc2S(C)(=O)=O)c2c(NS(=O)(=O)c3cccc(S(N)(=O)=O)c3)cccc12` [XVII], the E1/2 was “+240 mV”. In the case of `CCCCCCCCCCCCN(CC1=C(c2ccc(C#N)cc2)C(=O)C2=C(CCCC2)C1=O)C(=O)Oc1ccc(N=Nc2ccc([N+](=O)[O-])cc2S(C)(=O)=O)c2c(NS(=O)(=O)c3cccc(S(N)(=O)=O)c3)cccc12` [XVI], the E1/2 is reported as “+220 mV”. With `CC(C)NS(=O)(=O)c1ccc(C2=C(CN(C)C(=O)Oc3ccc(N=Nc4ccc([N+](=O)[O-])cc4S(C)(=O)=O)c4c(NS(=O)(=O)c5cccc(S(N)(=O)=O)c5)cccc34)C(=O)C3=C(CCCC3)C2=O)cc1` [VIII] the E1/2 was “+212 mV”. For `CCCCCCCCCCC(=O)c1ccc(C2=C(CN(C)C(=O)Oc3ccc(N=Nc4ccc([N+](=O)[O-])cc4S(C)(=O)=O)c4c(NS(=O)(=O)c5cccc(S(N)(=O)=O)c5)cccc34)C(=O)C3=C(CCCC3)C2=O)cc1` [XII], the E1/2 was “+206 mV”. In the case of `CN(CC1=C(c2ccc(C(=O)O)cc2)C(=O)C2=C(CCCC2)C1=O)C(=O)Oc1ccc2c3c(cccc13)C(=O)C=C2` [RIND Compound XXXV], the E1/2 is reported as “+220 mV”. In the case of `CC(=O)c1ccc(C2=C(CN(C)C(=O)Oc3ccc(N=Nc4ccc([N+](=O)[O-])cc4S(C)(=O)=O)c4c(NS(=O)(=O)c5cccc(S(N)(=O)=O)c5)cccc34)C(=O)C3=C(CCCC3)C2=O)cc1` [XIII], the E1/2 is reported as “+212 mV”. In the case of `CN(CC1=C(c2ccc(C#N)cc2)C(=O)C2=C(CCCC2)C1=O)C(=O)Oc1ccc2c3c(cccc13)C(=O)C=C2` [XXIX], the E1/2 is reported as “+220 mV”. In the case of `CN(CC1=C(c2ccc([N+](=O)[O-])cc2)C(=O)C2=C(CCCC2)C1=O)C(=O)Oc1ccc2c3c(cccc13)C(=O)C=C2` [XXXIII], the E1/2 is reported as “+236 mV”. In the case of `CCCCCCCCCCCCC1CC2=C(C1)C(=O)C(c1ccccc1)=C(CN(C)C(=O)Oc1ccc(N=Nc3ccc([N+](=O)[O-])cc3S(C)(=O)=O)c3c(NS(=O)(=O)c4cccc(S(N)(=O)=O)c4)cccc13)C2=O` (stereo not drawn) [XXV], the E1/2 is reported as “+222 mV”. In the case of `CN(CC1=C(c2ccccc2)C(=O)C2=C(CCCC2)C1=O)C(=O)Oc1ccc(N=Nc2ccc([N+](=O)[O-])cc2S(C)(=O)=O)c2c(NS(=O)(=O)c3cccc(S(N)(=O)=O)c3)cccc12` [VI], the E1/2 is reported as “+180 mV”. For `CN(CC1=C(c2ccc(C#N)cc2)C(=O)C2=C(CCCC2)C1=O)C(=O)Oc1ccc(N=Nc2ccc([N+](=O)[O-])cc2S(C)(=O)=O)c2c(NS(=O)(=O)c3cccc(S(N)(=O)=O)c3)cccc12` [IX], the E1/2 was “+220 mV”. In the case of `CN(CC1=C(c2ccc(Br)cc2)C(=O)C2=C(CCCC2)C1=O)C(=O)Oc1ccc(N=Nc2ccc([N+](=O)[O-])cc2S(C)(=O)=O)c2c(NS(=O)(=O)c3cccc(S(N)(=O)=O)c3)cccc12` [XIV], the E1/2 is reported as “+192 mV”. In the case of `CN(CC1=C(c2ccc([N+](=O)[O-])cc2)C(=O)C2=C(CCCC2)C1=O)C(=O)Oc1ccc(N=Nc2ccc([N+](=O)[O-])cc2S(C)(=O)=O)c2c(NS(=O)(=O)c3cccc(S(N)(=O)=O)c3)cccc12` [VII], the E1/2 is reported as “+236 mV”. With `CN(CC1=CC(=O)C2=C(CCCC2)C1=O)C(=O)Oc1ccc(N=Nc2ccc([N+](=O)[O-])cc2S(C)(=O)=O)c2c(NS(=O)(=O)c3cccc(S(N)(=O)=O)c3)cccc12` [XV] the E1/2 was “+213 mV”. For `CN(CC1=C(c2cc([N+](=O)[O-])cc([N+](=O)[O-])c2)C(=O)C2=C(CCCC2)C1=O)C(=O)Oc1ccc(N=Nc2ccc([N+](=O)[O-])cc2S(C)(=O)=O)c2c(NS(=O)(=O)c3cccc(S(N)(=O)=O)c3)cccc12` [XI], the E1/2 was “+186 mV”. In the case of `CC1CCC(C)C2=C1C(=O)C(CN(C)C(=O)Oc1ccc(N=Nc3ccc([N+](=O)[O-])cc3S(C)(=O)=O)c3c(NS(=O)(=O)c4cccc(S(N)(=O)=O)c4)cccc13)=C(c1ccccc1)C2=O` (stereo not drawn) [XXVII], the E1/2 is reported as “+122 mV”. In the case of `Cc1cc(=O)oc2cc(OC(=O)N(C)CC3=C(c4cccc([N+](=O)[O-])c4)C(=O)C4=C(CCCC4)C3=O)ccc12` [XXIII], the E1/2 is reported as “+214 mV”. With `CC(C1=C(CN(C)C(=O)Oc2ccc(N=Nc3ccc([N+](=O)[O-])cc3S(C)(=O)=O)c3c(NS(=O)(=O)c4cccc(S(N)(=O)=O)c4)cccc23)C(=O)C(C(C)c2ccc([N+](=O)[O-])cc2)=C(CN(C)C(=O)Oc2ccc(N=Nc3ccc([N+](=O)[O-])cc3S(C)(=O)=O)c3c(NS(=O)(=O)c4cccc(S(N)(=O)=O)c4)cccc23)C1=O)c1ccc([N+](=O)[O-])cc1` (stereo not drawn) [II] the E1/2 was “+236 mV”. With `CN(CC1=C(c2cccc([N+](=O)[O-])c2)C(=O)C2=C(CCCC2)C1=O)C(=O)Oc1ccc2c3c(cccc13)C(=O)C=C2` [XXXII] the E1/2 was “+214 mV”. For `CN(CC1=C(c2ccccc2)C(=O)C2=C(CCC2)C1=O)C(=O)Oc1ccc(N=Nc2ccc([N+](=O)[O-])cc2S(C)(=O)=O)c2c(NS(=O)(=O)c3cccc(S(N)(=O)=O)c3)cccc12` [XX], the E1/2 was “+222 mV”. With `CN(CC1=C(c2cccc([N+](=O)[O-])c2)C(=O)C2=C(CCCC2)C1=O)C(=O)Oc1ccc(N=Nc2ccc([N+](=O)[O-])cc2S(C)(=O)=O)c2c(NS(=O)(=O)c3cccc(S(N)(=O)=O)c3)cccc12` [V] the E1/2 was “+214 mV”. With `CN(CC1=C(c2cc(Cl)ccc2Cl)C(=O)C2=C(CCC2)C1=O)C(=O)Oc1ccc2c3c(cccc13)C(=O)C=C2` [XXXI] the E1/2 was “+236 mV”. With `CC1=C(C)C(=O)C(c2ccccc2)=C(CN(C)C(=O)Oc2ccc(N=Nc3ccc([N+](=O)[O-])cc3S(C)(=O)=O)c3c(NS(=O)(=O)c4cccc(S(N)(=O)=O)c4)cccc23)C1=O` [XXXVI] the E1/2 was “+144 mV”.

Same assay, conditions: quinone nucleus with H in place of the releasing group; denoted *: measured in acetonitrile, saturated calomel electrode
For `CCCCCCCCCCNS(=O)(=O)c1ccc(C(C)C2=C(CN(C)C(=O)Oc3ccc4c(C)cc(=O)oc4c3)C(=O)C(C(C)c3ccc(S(=O)(=O)NCCCCCCCCCC)cc3)=C(CN(C)C(=O)Oc3ccc4c(C)cc(=O)oc4c3)C2=O)cc1` (stereo not drawn) [XXII], the E1/2 was -528 mV. `CCCCCCCCCCNS(=O)(=O)c1ccc(C(C)C2=C(CN(C)C(=O)Oc3ccc(N=Nc4ccc([N+](=O)[O-])cc4S(C)(=O)=O)c4c(NS(=O)(=O)c5cccc(S(N)(=O)=O)c5)cccc34)C(=O)C(C(C)c3ccc(S(=O)(=O)NCCCCCCCCCC)cc3)=C(CN(C)C(=O)Oc3ccc(N=Nc4ccc([N+](=O)[O-])cc4S(C)(=O)=O)c4c(NS(=O)(=O)c5cccc(S(N)(=O)=O)c5)cccc34)C2=O)cc1` (stereo not drawn) [I] showed an E1/2 of -528 mV. `CCCCCCCCCCNS(=O)(=O)c1ccc(C(C)C2=C(CN(C)C(=O)Oc3ccc(N=Nc4cccc(S(N)(=O)=O)c4)c4c(NS(C)(=O)=O)cccc34)C(=O)C(C(C)c3ccc(S(=O)(=O)NCCCCCCCCCC)cc3)=C(CN(C)C(=O)Oc3ccc(N=Nc4cccc(S(N)(=O)=O)c4)c4c(NS(C)(=O)=O)cccc34)C2=O)cc1` (stereo not drawn) [XXI] showed an E1/2 of -528 mV.
